Results taken from ChEMBL document CHEMBL3244221, “Attempted inhibition of histidine decarboxylase with beta-alkyl analogues of histidine” (J Med Chem, 1977).
The source made the active and inactive calls. No cut-off for these calls is given here.

Experiments:
[1] = target: T1, Histidine decarboxylase (Rattus norvegicus) (UniProt P16453); experiment: Inhibition of histidine decarboxylase in Sprague-Dawley rat stomach using L-histidine-carboxyl-[14C] as substrate at 1 X 10^-4 M after 30 mins by scintillation counting analysis
T1 sequence (whole entry): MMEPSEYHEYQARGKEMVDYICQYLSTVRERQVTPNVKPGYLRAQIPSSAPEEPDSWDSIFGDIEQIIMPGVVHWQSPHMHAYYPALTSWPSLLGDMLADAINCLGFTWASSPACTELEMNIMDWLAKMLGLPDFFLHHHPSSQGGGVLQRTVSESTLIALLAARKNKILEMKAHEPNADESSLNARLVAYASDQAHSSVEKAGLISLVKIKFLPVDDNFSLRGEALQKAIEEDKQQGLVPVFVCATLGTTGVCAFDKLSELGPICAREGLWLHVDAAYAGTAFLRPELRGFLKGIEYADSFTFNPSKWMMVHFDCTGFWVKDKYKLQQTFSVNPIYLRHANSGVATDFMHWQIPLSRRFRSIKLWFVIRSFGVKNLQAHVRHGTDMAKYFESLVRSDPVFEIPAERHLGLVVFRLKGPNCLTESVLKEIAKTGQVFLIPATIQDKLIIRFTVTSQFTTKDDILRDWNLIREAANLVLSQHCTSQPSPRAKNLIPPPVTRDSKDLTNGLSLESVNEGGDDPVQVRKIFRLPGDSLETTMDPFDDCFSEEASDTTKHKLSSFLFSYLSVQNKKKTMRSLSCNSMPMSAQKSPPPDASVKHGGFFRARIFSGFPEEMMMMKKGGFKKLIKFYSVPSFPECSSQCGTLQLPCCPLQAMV

[2] = target: T1, Histidine decarboxylase (Rattus norvegicus); experiment: Inhibition of histidine decarboxylase in Sprague-Dawley rat stomach using L-histidine-carboxyl-[14C] as substrate at 4 X 10^-6 M after 30 mins by scintillation counting analysis relative to control

Row | Structure (SMILES) | inhibition [1] | inhibition [2] [%]
1 | CC(c1c[nH]cn1)C(N)C(=O)O (configuration not stated) | inactive | –
2 | CCC(c1c[nH]cn1)C(N)C(=O)OC (mixture of isomers) | inactive | 50
3 | CCCCCCC(c1c[nH]cn1)C(N)C(=O)O (mixture of isomers) | inactive | –

Results, then the compound that gave them:

Row | inhibition [1] | inhibition [2] [%] | Structure (SMILES)
4 | inactive | – | CCC(c1c[nH]cn1)C(N)C(=O)O (mixture of isomers)
5 | inactive | 50 | COC(=O)C(N)C(C)c1c[nH]cn1 (mixture of isomers)
